Patent US20040157738A1, “Novel oxygen containing fused cyclic derivatives and herbicidal, desiccant and defoliate compositions containing them” (ISHIHARA SANGYO KAISHA, LTD., priority 2003, published 2004)

Columns and labels:
Format in all cases: in vivo
[1] = tested on: barnyardgrass (Echinochloa crus-galli L.), ECHCG; assay: Test Example 2: post-emergence (foliage treatment) herbicidal activity (growth controlling degree); details: 1.8-2.4 leaf stage
From the text: (§1) Upland field soil was put into a 1/170,000 ha pot, and seeds of various plants were sown. Then, when the plants reached predetermined leaf stages [I. barnyardgrass (Echinochloa crus-galli L.), ECHCG: 1.8-2.4 leaf stage, 2. crabgrass (Digitaria sanguinalis L.), DIGSA: 1.5-2.2 leaf stage, 3. green foxtail (Setaria viridis L.), SETVI: 1.7-2.5 leaf stage, 4. redroot pigweed (Amaranthus retroflexus L.), AMARE: 0.1-0.3 leaf stage, 5. prickly sida (Sida spinosa L.), SIDSP: 0.3-0.5 leaf stage, 6. velvetleaf (Abutilon theophrasti), ABUTH: 0.3-0.4 leaf stage, 7. common cocklebur (Xanthium strumarium L.), XANST: 0.2-0.6 leaf stage, 8. rice (Oryza sativa L.), ORYSA: 1.6-2.2 leaf stage, 9. wheat (Triticum aestivum L.), TRZAX: 2.8 leaf stage, 10. corn (Zea mays L.), ZEAMX: 2.2-2.5 leaf stage, 11. soybean (Glycine max Merr.), GLXMA: 0.2-0.3 leaf stage], a wettable powder or emulsifiable concentrate having the compound of the present invention formulated in accordance with a usual formulation method, was weighed so that the active ingredient would be a predetermined amount, and diluted with water in an amount of 500 L/ha. To the diluted solution, 0.1%(v/v) of an agricultural spreader was added. The herbicide adjusted was applied by a small size sprayer for foliage treatment. On the […] day after the application of the herbicide, the growth of the respective plants was visually observed, and the herbicidal effects were evaluated by growth controlling degrees (%) ranging from 0 (equivalent to the untreated control) to 100 (complete kill), whereby the results shown in Table 12, were obtained. Compound Nos. in Table 12 correspond to Compound Nos. in Table 1 to 7 given hereinbefore.

[2] = tested on: common cocklebur (Xanthium strumarium L.), XANST; assay: as above; details: Xanthium strumarium, 504 h, 31 g a.i./ha, 0.2-0.6 leaf stage
From the text: as §1

[3] = tested on: corn (Zea mays L.), ZEAMX; assay: as above; details: 2.2-2.5 leaf stage
From the text: as §1

[4] = tested on: crabgrass (Digitaria sanguinalis L.), DIGSA; assay: as above; details: 1.5-2.2 leaf stage
From the text: as §1

[5] = tested on: green foxtail (Setaria viridis L.), SETVI; assay: as above; details: 1.7-2.5 leaf stage
From the text: as §1

[6] = tested on: prickly sida (Sida spinosa L.), SIDSP; assay: as above; details: 0.3-0.5 leaf stage
From the text: as §1

[7] = tested on: redroot pigweed (Amaranthus retroflexus L.), AMARE; assay: as above; details: 0.1-0.3 leaf stage
From the text: as §1

[8] = tested on: rice (Oryza sativa L.), ORYSA; assay: as above; details: 1.6-2.2 leaf stage
From the text: as §1

[9] = tested on: soybean (Glycine max Merr.), GLXMA; assay: as above; details: 0.2-0.3 leaf stage
From the text: as §1

[10] = tested on: velvetleaf (Abutilon theophrasti), ABUTH; assay: as above; details: 0.3-0.4 leaf stage
From the text: as §1

[11] = tested on: barnyardgrass (Echinochloa oryzicola: ECHOR); assay: Test Example 3: water application herbicidal activity, paddy (growth controlling degree); details: rate 63 g a.i./ha, water application under submerged condition, paddy pot, barnyardgrass at 0.5 leaf stage
From the text: (§2) Paddy field soil was put into a {fraction (1/1,000,000)} ha pot, and seeds of barnyardgrass (Echinochloa oryzicola: ECHOR) and japanese bulrush (Scirpus juncoides: SCPJO) were sown and slightly covered with soil. Then the pot was left to stand still in a greenhouse in a state where the depth of flooding water was from 0.5 to 1 cm, and one day later, tubers of japanese ribbon wapato (Sagittaria pygmaea: SAGPY) were planted. Thereafter, the depth of flooding water was maintained at a level of from 3 to 4 cm, and when barnyardgrass and japanese bulrush reached a 0.5 leaf stage, an aqueous diluted solution of a wettable powder or emulsifiable concentrate having the compound of the present invention formulated in accordance with a usual formulation method, was uniformly applied under submerged condition by a pipette so that the dose of the active ingredient would be at a predetermined level. On the other hand, paddy filed soil was put into a {fraction (1/1,000,000)} ha pot and puddled and leveled, and the depth of flooding water was from 3 to 4 cm. One day later, rice (Oryza sativa L.: ORYSA) of 2 leaf stage was transplanted in a depth of 3 cm. On the 4th day after the transplantation, the compound of the present invention was applied in the same manner as described above. On the 14th day after the application of the herbicide, the growth of barnyardgrass, japanese burlush and japanese ribbon wapato was visually observed and on the 21st day after the application of the herbicide, the growth of rice was visually observed, and the herbicidal effects were evaluated by growth controlling degrees (%) ranging from 0 (equivalent to the untreated control) to 100 (complete kill), whereby the results shown in Table 13, were obtained. Compound Nos. in Table 13 correspond to Compound Nos. in Table 1 to 7 given hereinbefore.

[12] = tested on: japanese bulrush (Scirpus juncoides: SCPJO); assay: as above; details: rate 63 g a.i./ha, water application under submerged condition, paddy pot, japanese bulrush at 0.5 leaf stage
From the text: as §2

[13] = tested on: japanese ribbon wapato (Sagittaria pygmaea: SAGPY); assay: as above; details: rate 63 g a.i./ha; water application under submerged condition, paddy pot; tubers of japanese ribbon wapato planted
From the text: as §2

[14] = tested on: rice (Oryza sativa L.: ORYSA); assay: as above; details: rate 63 g a.i./ha, paddy pot, rice of 2 leaf stage transplanted, treated on the 4th day after transplantation
From the text: as §2

[15] = tested on: barnyardgrass (Echinochloa crus-galli L.): ECHCC; assay: Test Example 1: pre-emergence herbicidal activity (growth controlling degree); details: 500 g a.i./ha, 20th to 21st day after application
From the text: (§3) Upland field soil was put into a 1/170,000 ha pot, and seeds of various plants [1. barnyardgrass (Echinochloa crus-galli L.): ECHCC, 2. crabgrass (Digitaria sanguinalis L.): DIGSA, 3. green foxtail (Setaria viridis L.): SETVI, 4. redroot pigweed (Amaranthus retroflexus L.): AMARE, 5. prickly sida (Sida spinosa L.): SIDSP, 6. velvetleaf (Abutilon theophrasti): ABUTH, 7. common cocklebur (Xanthium strumarium L.): XANST, 8. rice (Oryza sativa L.): ORYSA, 9. wheat (Triticum aestivum L.): TRZAX, 10. corn (Zea mays L.): ZEAMX, 11. soybean (Glycine max Merr.): GLXMA] were sown. Then, one day after the sowing, a wettable powder or emulsifiable concentrate having the compound of the present invention formulated in accordance with a usual formulation method, was weighed so that the active ingredient would be a predetermined amount, and diluted with water in an amount of 500 L/ha. The herbicide adjusted was applied by a small size sprayer for pre-emergence treatment. On the 20th to 21st day after the application of the herbicide, the growth of the respective plants was visually observed, and the herbicidal effects were evaluated by growth controlling degrees (%) ranging from 0 (equivalent to the untreated control) to 100 (complete kill), whereby the results shown in Table 11, were obtained. Compound Nos. in Table 11 correspond to Compound Nos. in Table 1 to 7 given hereinbefore.

[16] = tested on: common cocklebur (Xanthium strumarium L.): XANST; assay: as above; details: 500 g a.i./ha, 20th to 21st day after application
From the text: as §3

[17] = tested on: corn (Zea mays L.): ZEAMX; assay: as above; details: 500 g a.i./ha, 20th to 21st day after application
From the text: as §3

[18] = tested on: crabgrass (Digitaria sanguinalis L.): DIGSA; assay: as above; details: 500 g a.i./ha, 20th to 21st day after application
From the text: as §3

[19] = tested on: green foxtail (Setaria viridis L.): SETVI; assay: as above; details: 500 g a.i./ha, 20th to 21st day after application
From the text: as §3

[20] = tested on: prickly sida (Sida spinosa L.): SIDSP; assay: as above; details: 500 g a.i./ha, 20th to 21st day after application
From the text: as §3

[21] = tested on: redroot pigweed (Amaranthus retroflexus L.): AMARE; assay: as above; details: 500 g a.i./ha, 20th to 21st day after application
From the text: as §3

[22] = tested on: rice (Oryza sativa L.): ORYSA; assay: as above; details: 500 g a.i./ha, 20th to 21st day after application
From the text: as §3

[23] = tested on: velvetleaf (Abutilon theophrasti): ABUTH; assay: as above; details: 500 g a.i./ha, 20th to 21st day after application
From the text: as §3

SMILES: Cn1nc(-c2c(F)cc(Cl)c3c2CCC(C)(C)O3)c(Cl)c1OC(F)F [Compound 1-40, 4-chloro-3-(8-chloro-6-fluoro-3,4-dihydro-2,2-dimethyl-2H-1-benzopyran-5-yl)-5-(difluoromethoxy)-1-methyl-1H-pyrazole]
- pest or weed control at 31 g/ha ([1]; Echinochloa crus-galli, 504 h, 31 g a.i./ha): 100%
- pest or weed control at 31 g/ha [2]: 100%
- plant injury at 31 g/ha ([3]; Zea mays, 504 h, 31 g a.i./ha): 70%
- pest or weed control at 31 g/ha ([4]; Digitaria sanguinalis, 504 h, 31 g a.i./ha, read-out: growth controlling degree, DIGSP): 100%
- pest or weed control at 31 g/ha ([5]; Setaria viridis, 504 h, 31 g a.i./ha): 100%
- pest or weed control at 31 g/ha ([6]; Sida spinosa, 504 h, 31 g a.i./ha): 100%
- growth controlling degree, AMARE ([7]; 31 g a.i./ha): 100%
- plant injury at 31 g/ha ([8]; Oryza sativa, 504 h, 31 g a.i./ha): 70%
- pest or weed control at 31 g/ha ([9]; Glycine max, 504 h, 31 g a.i./ha): 60%
- pest or weed control at 31 g/ha ([10]; Abutilon theophrasti, 504 h, 31 g a.i./ha): 100%
- pest or weed control at 63 g/ha ([11]; Echinochloa oryzicola, 336 h): 100%
- pest or weed control at 63 g/ha ([12]; Schoenoplectiella juncoides, 336 h): 100%
- Water Application Herbicidal Activity SAGPY (growth controlling degree) [13]: 95%
- pest or weed control at 63 g/ha ([14]; Oryza sativa, 504 h): 35%

SMILES: CC1CCc2c(c(Cl)cc(F)c2-c2ncc(C(F)(F)F)cc2Cl)O1 (centres unmarked) [Compound 7-4]
- growth controlling degree, ECHCG [15]: 70%
- growth controlling degree, XANST [16]: 10%
- growth controlling degree, ZEAMX [17]: 40%
- growth controlling degree, DIGSP [18]: 100%
- growth controlling degree, SETVI [19]: 100%
- growth controlling degree, SIDSP [20]: 100%
- growth controlling degree, AMARE [21]: 100%
- growth controlling degree, ORYSA [22]: 30%
- growth controlling degree, ABUTH [23]: 100%
- growth controlling degree, ECHCG ([1]; 63 g a.i./ha): 50%
- growth controlling degree, ZEAMX ([3]; 63 g a.i./ha): 70%
- growth controlling degree, DIGSP ([4]; 63 g a.i./ha): 50%
- growth controlling degree, SETVI ([5]; 63 g a.i./ha): 80%
- growth controlling degree, SIDSP ([6]; 63 g a.i./ha): 80%
- growth controlling degree, AMARE ([7]; 63 g a.i./ha): 95%
- growth controlling degree, ORYSA ([8]; 63 g a.i./ha): 60%
- growth controlling degree, GLXMA ([9]; 63 g a.i./ha): 50%
- growth controlling degree, ABUTH ([10]; 63 g a.i./ha): 100%
- Water Application Herbicidal Activity ECHOR (growth controlling degree) [11]: 70%
- Water Application Herbicidal Activity SCPJO (growth controlling degree) [12]: 90%
- Water Application Herbicidal Activity ORYSA (growth controlling degree) [14]: 0%
